# Laboratory results taken from patent US8883745B2, “C—glycolipids with enhanced Th-1 profile” (New York University, priority 2006, dated 2014).
# What was measured:
# Format in all cases: in vivo
# IL-12 [1] = assay: IL-12 levels in sera upon i.v. glycolipid administration to C57BL/6 mice (ELISA); set-up: IL-12 levels, test 1 / IL-12 levels, test 2 / IL-12 levels, average / IL-12 levels, Total: unit not given here
# Summary of the method: (§1)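 Female C57BL/6 and BALB/c mice, 5–6 weeks old, received 1 μg glycolipid i.v. in 200 μL PBS; PBS alone served as control. Sera taken at 0, 2, 6, 12, 24, 48 and 72 h were diluted 1:10 and assayed by sandwich ELISA (TMB, A450) against known standards.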
# IFN-γ = IFN-γ levels in sera upon i.v. glycolipid administration to BALB/c mice (ELISA); set-up: IFN-γ levels, test 1 / IFN-γ levels, test 2 / IFN-γ levels, average / IFN-γ levels, Total: unit not given here; details: BALB/c
# Summary of the method: as §1
# IL-4 = IL-4 levels in sera upon i.v. glycolipid administration to BALB/c mice (ELISA); set-up: unit not given here
# Summary of the method: as §1
# IL-12 [2] = assay: IL-12 levels in sera upon i.v. glycolipid administration to BALB/c mice (ELISA); set-up: IL-12 levels, test 1 / IL-12 levels, test 2 / IL-12 levels, average / IL-12 levels, Total: unit not given here
# Summary of the method: as §1
# [3] = ratio calculated from Tables 1-6
structure (smiles),measurement,setting,value
"CCCCCCCCCCCCCCCCCCCCCCCCCC(=O)N[C@@H](CO[C@H]1O[C@H](CO)[C@H](O)[C@H](O)[C@H]1O)[C@H](O)[C@H](O)CCCCCCCCCCCCCC [KRN, (2S,3S,4R)-1-O-(α-D-galactopyranosyl)-2-(N-hexacosanoylamino)-1,3,4-,-octadecanetriol, reference compound]",IL-12/IL-4 (B6),"IL-12 [1]; C57BL/6, ratio calculated from Tables 1-6",0.3
same,"IL-12 levels, average","IL-12 [1]; C57BL/6, serum, hour 0",5
same,"IL-12 levels, test 1","IL-12 [1]; C57BL/6, serum, hour 0",5
same,"IL-12 levels, test 2","IL-12 [1]; C57BL/6, serum, hour 0",5
same,"IL-12 levels, average","IL-12 [1]; C57BL/6, serum, hour 2",0
same,"IL-12 levels, test 1","IL-12 [1]; C57BL/6, serum, hour 2",0
same,"IL-12 levels, test 2","IL-12 [1]; C57BL/6, serum, hour 2",0
same,"IL-12 levels, average","IL-12 [1]; C57BL/6, serum, hour 6",1044.5
same,"IL-12 levels, test 1","IL-12 [1]; C57BL/6, serum, hour 6",1116
same,"IL-12 levels, test 2","IL-12 [1]; C57BL/6, serum, hour 6",973
same,"IL-12 levels, average","IL-12 [1]; C57BL/6, serum, hour 12",195
same,"IL-12 levels, test 1","IL-12 [1]; C57BL/6, serum, hour 12",174
same,"IL-12 levels, test 2","IL-12 [1]; C57BL/6, serum, hour 12",216
same,"IL-12 levels, average","IL-12 [1]; C57BL/6, serum, hour 24",0
same,"IL-12 levels, test 1","IL-12 [1]; C57BL/6, serum, hour 24",0
same,"IL-12 levels, test 2","IL-12 [1]; C57BL/6, serum, hour 24",0
same,"IL-12 levels, average","IL-12 [1]; C57BL/6, serum, hour 48",61.5
same,"IL-12 levels, test 1","IL-12 [1]; C57BL/6, serum, hour 48",0
same,"IL-12 levels, test 2","IL-12 [1]; C57BL/6, serum, hour 48",123
same,"IL-12 levels, average","IL-12 [1]; C57BL/6, serum, hour 72",132.5
same,"IL-12 levels, test 1","IL-12 [1]; C57BL/6, serum, hour 72",101
same,"IL-12 levels, test 2","IL-12 [1]; C57BL/6, serum, hour 72",164
same,"IL-12 levels, Total","IL-12 [1]; C57BL/6, serum, total over hours 0-72",1440
same,IFN-γ/IL-4 (BALB/c),IFN-γ; [3],10
same,"IFN-γ levels, average","IFN-γ; serum, hour 0",27
same,"IFN-γ levels, test 1","IFN-γ; serum, hour 0",27
same,"IFN-γ levels, test 2","IFN-γ; serum, hour 0",27
same,"IFN-γ levels, average","IFN-γ; serum, hour 2",945
same,"IFN-γ levels, test 1","IFN-γ; serum, hour 2",841
same,"IFN-γ levels, test 2","IFN-γ; serum, hour 2",1049
same,"IFN-γ levels, average","IFN-γ; serum, hour 6",4752.5
same,"IFN-γ levels, test 1","IFN-γ; serum, hour 6",4170
same,"IFN-γ levels, test 2","IFN-γ; serum, hour 6",5335
same,"IFN-γ levels, average","IFN-γ; serum, hour 12",8393.5
same,"IFN-γ levels, test 1","IFN-γ; serum, hour 12",7996
same,"IFN-γ levels, test 2","IFN-γ; serum, hour 12",8791
same,"IFN-γ levels, average","IFN-γ; serum, hour 24",6740
same,"IFN-γ levels, test 1","IFN-γ; serum, hour 24",6497
same,"IFN-γ levels, test 2","IFN-γ; serum, hour 24",6983
same,"IFN-γ levels, average","IFN-γ; serum, hour 48",112.5
same,"IFN-γ levels, test 1","IFN-γ; serum, hour 48",86
same,"IFN-γ levels, test 2","IFN-γ; serum, hour 48",139
same,"IFN-γ levels, average","IFN-γ; serum, hour 72",36
same,"IFN-γ levels, test 1","IFN-γ; serum, hour 72",36
same,"IFN-γ levels, test 2","IFN-γ; serum, hour 72",36
same,"IFN-γ levels, Total","IFN-γ; serum, total over hours 0-72",21008
same,"IL-4 level, average",IL-4; hour 0,27
same,"IL-4 level, test 1",IL-4; hour 0,27
same,"IL-4 level, test 2",IL-4; hour 0,27
same,"IL-4 level, average",IL-4; hour 2,1690
same,"IL-4 level, test 1",IL-4; hour 2,1809
same,"IL-4 level, test 2",IL-4; hour 2,1571
same,"IL-4 level, average",IL-4; hour 6,204
same,"IL-4 level, test 1",IL-4; hour 6,214
same,"IL-4 level, test 2",IL-4; hour 6,194
same,"IL-4 level, average",IL-4; hour 12,89
same,"IL-4 level, test 1",IL-4; hour 12,78
same,"IL-4 level, test 2",IL-4; hour 12,100
same,"IL-4 level, average",IL-4; hour 24,50.5
same,"IL-4 level, test 1",IL-4; hour 24,51
same,"IL-4 level, test 2",IL-4; hour 24,50
same,"IL-4 level, average",IL-4; hour 48,44
same,"IL-4 level, test 1",IL-4; hour 48,46
same,"IL-4 level, test 2",IL-4; hour 48,42
same,"IL-4 level, average",IL-4; hour 72,12
same,"IL-4 level, test 1",IL-4; hour 72,12
same,"IL-4 level, test 2",IL-4; hour 72,12
same,"IL-4 level, Total",IL-4; total over hours 0-72,2117
same,IL-12/IL-4 (BALB/c),IL-12 [2]; [3],2
same,"IL-12 levels, average","IL-12 [2]; serum, hour 0",5
same,"IL-12 levels, test 1","IL-12 [2]; serum, hour 0",5
same,"IL-12 levels, test 2","IL-12 [2]; serum, hour 0",5
same,"IL-12 levels, average","IL-12 [2]; serum, hour 2",124
same,"IL-12 levels, test 1","IL-12 [2]; serum, hour 2",69
same,"IL-12 levels, test 2","IL-12 [2]; serum, hour 2",179
same,"IL-12 levels, average","IL-12 [2]; serum, hour 6",3067.5
same,"IL-12 levels, test 1","IL-12 [2]; serum, hour 6",2567
same,"IL-12 levels, test 2","IL-12 [2]; serum, hour 6",3568
same,"IL-12 levels, average","IL-12 [2]; serum, hour 12",437.5
same,"IL-12 levels, test 1","IL-12 [2]; serum, hour 12",282
same,"IL-12 levels, test 2","IL-12 [2]; serum, hour 12",593
same,"IL-12 levels, average","IL-12 [2]; serum, hour 24",265.5
same,"IL-12 levels, test 1","IL-12 [2]; serum, hour 24",119
same,"IL-12 levels, test 2","IL-12 [2]; serum, hour 24",412
same,"IL-12 levels, average","IL-12 [2]; serum, hour 48",68
same,"IL-12 levels, test 1","IL-12 [2]; serum, hour 48",57
same,"IL-12 levels, test 2","IL-12 [2]; serum, hour 48",79
same,"IL-12 levels, average","IL-12 [2]; serum, hour 72",61
same,"IL-12 levels, test 1","IL-12 [2]; serum, hour 72",57
same,"IL-12 levels, test 2","IL-12 [2]; serum, hour 72",65
same,"IL-12 levels, Total","IL-12 [2]; serum, total over hours 0-72",4030
